Measurements taken from patent US11571455B2, “Methods and compositions for treating alcoholic liver disease” (VANDERBILT UNIVERSITY, priority 2013, dated 2023).
Bridge positions count the residues as written; N and C are the ends. Peptide text beside a SMILES is read from it.

Assays:
[1] = tested on: nuclear import of NF-κB, AP-1, NFAT, and STAT1 in Jurkat T cells; type: cell-based, human
[2] = target: T1, importin α5/karyopherin α1 (/KPNA1/SRP1) (Homo sapiens, UniProt P52294); assay: Binding to the nuclear import adaptor
T1 construct: SRP1/importin alpha 5 (karyopherin alpha1)/importin beta 1 heterodimer expressed in Jurkat T cells; endogenous in cells; host or cells: Jurkat T cells
T1 sequence (P52294 whole entry): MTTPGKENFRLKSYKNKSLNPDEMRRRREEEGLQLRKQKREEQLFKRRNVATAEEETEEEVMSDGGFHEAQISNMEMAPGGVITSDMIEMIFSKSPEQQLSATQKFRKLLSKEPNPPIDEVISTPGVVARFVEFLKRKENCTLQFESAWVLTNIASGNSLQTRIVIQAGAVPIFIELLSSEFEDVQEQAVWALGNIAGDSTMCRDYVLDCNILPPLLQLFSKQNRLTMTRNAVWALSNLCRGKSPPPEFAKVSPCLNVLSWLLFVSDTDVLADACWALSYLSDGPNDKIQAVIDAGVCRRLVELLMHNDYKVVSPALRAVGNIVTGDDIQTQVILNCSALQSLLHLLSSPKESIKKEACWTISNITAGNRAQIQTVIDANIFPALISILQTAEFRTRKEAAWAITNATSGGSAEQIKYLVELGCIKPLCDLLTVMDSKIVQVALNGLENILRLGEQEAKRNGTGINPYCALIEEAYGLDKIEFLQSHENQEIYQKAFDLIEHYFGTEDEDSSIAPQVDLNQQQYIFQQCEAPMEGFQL
T1 sequence (Q14974 whole entry partner): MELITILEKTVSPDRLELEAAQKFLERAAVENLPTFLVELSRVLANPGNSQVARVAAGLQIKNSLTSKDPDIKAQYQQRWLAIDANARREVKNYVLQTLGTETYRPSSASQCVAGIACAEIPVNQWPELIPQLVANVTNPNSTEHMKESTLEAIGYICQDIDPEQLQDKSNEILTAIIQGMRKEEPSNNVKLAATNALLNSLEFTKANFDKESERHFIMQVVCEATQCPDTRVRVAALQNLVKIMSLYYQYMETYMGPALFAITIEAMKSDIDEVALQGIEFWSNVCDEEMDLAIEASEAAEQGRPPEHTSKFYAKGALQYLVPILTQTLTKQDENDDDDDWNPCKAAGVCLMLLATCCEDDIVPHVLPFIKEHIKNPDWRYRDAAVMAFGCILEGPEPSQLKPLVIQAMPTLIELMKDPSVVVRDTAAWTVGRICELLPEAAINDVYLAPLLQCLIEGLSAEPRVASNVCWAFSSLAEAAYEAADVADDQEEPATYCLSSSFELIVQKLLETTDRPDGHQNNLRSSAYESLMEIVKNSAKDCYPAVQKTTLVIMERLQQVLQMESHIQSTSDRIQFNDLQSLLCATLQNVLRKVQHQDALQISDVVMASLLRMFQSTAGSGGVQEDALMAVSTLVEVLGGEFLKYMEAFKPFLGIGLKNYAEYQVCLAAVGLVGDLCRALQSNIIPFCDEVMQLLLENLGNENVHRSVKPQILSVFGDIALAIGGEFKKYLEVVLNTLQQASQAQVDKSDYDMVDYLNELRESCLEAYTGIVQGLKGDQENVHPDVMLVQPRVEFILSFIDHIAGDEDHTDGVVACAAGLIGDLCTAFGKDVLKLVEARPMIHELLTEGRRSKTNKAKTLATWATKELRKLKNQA
Source text: Inflammatory liver injury mediated by macrophages (Kupffer cells) or T cells depends on the nuclear import of SRTFs. SRTFs regulate the genome response to proinflammatory and proapoptotic cues. The mechanism of action of cell-penetrating peptides SN50 and its cyclized analog cSN50 that inhibit the nuclear import of SRTFs is shown herein. SN50 binds to a nuclear import adaptor protein termed importin α5/karyopherin α1 (/KPNA1/SRP1) and inhibits its function as a cytoplasmic/nuclear shuttle for SRTFs. […] However, prior to the present disclosure, it was not known how EtOH influences the importin α5/karyopherin α1 (/KPNA1/SRP1)—mediated signaling to the nucleus and genome response in hepatocytes induced by LPS or Con A. Also identified was another putative nuclear import adapter, termed SARM, which appears to participate in LPS-induced liver injury. […] Example 2: Nuclear Import of Stress-Responsive Transcription Factors (SRTFs) Is Required for Inflammatory and Apoptotic Gene Expression.
It is well-recognized that signaling to the nucleus plays a key role in the response of T lymphocytes to immune and inflammatory stimuli. […]

[3] = tested on: Staphylococcal enterotoxin B-induced systemic inflammation; details: mouse, in vivo

Row | Molecule | nuclear import of SRTFs [1] | binding to importin α5/karyopherin α1 [2] | undesirable side effects [3]
1 | AAVALLPAVLLALLAPVQRKRQKLMP [SN50, SSHR of K-FGF linked to NLS of NF-κB1 p50] | prevents nuclear import of four SRTFs | binds | 
2 | CSCC[C@@H]1NC(=O)[C@H](CC(C)C)NC(=O)[C@H](CCCCN)NC(=O)[C@H](CCC(N)=O)NC(=O)[C@H](CCCNC(=N)N)NC(=O)[C@H](CCCCN)NC(=O)[C@H](CCCNC(=N)N)NC(=O)[C@H](CCC(N)=O)NC(=O)[C@H](C(C)C)NC(=O)[C@H](Cc2ccc(O)cc2)NC(=O)[C@@H](NC(=O)[C@@H]2CCCN2C(=O)[C@H](C)NC(=O)[C@H](CC(C)C)NC(=O)[C@H](CC(C)C)NC(=O)[C@H](C)NC(=O)[C@H](CC(C)C)NC(=O)[C@H](CC(C)C)NC(=O)[C@@H](NC(=O)[C@H](C)NC(=O)[C@@H]2CCCN2C(=O)[C@H](CC(C)C)NC(=O)[C@H](CC(C)C)NC(=O)[C@H](C)NC(=O)[C@@H](NC(=O)[C@H](C)NC(=O)[C@H](C)N)C(C)C)C(C)C)CSSC[C@@H](C(=O)O)NC(=O)[C@@H]2CCCN2C1=O [cSN50] (H-AAVALLPAVLLALLAPCYVQRKRQKLMPC-OH; disulfide 17-29; N-terminus and C-terminus assumed) |  |  | does not seem to cause undesirable side effects
